# Experimental data as given in patent publication US20210401773A1 (priority 2020, published 2021).
# Tested on: COVID-19
# Test: Clinical trials/studies: case reports of ye-[…] in people with COVID-19
# Assay type: in vivo
# Conditions: case 2: taken before ye-COVIDICIN; they got worse
smiles,measurement,value
CCN(CCO)CCCC(C)Nc1ccnc2cc(Cl)ccc12 (stereo not shown) [Hydroxychloroquine],Effect on COVID-19 in patient,did not work
